{"source": "patent US8187821B2", "about": "“Compositions and methods for the modulation of PGRMC1” (University of Utah Research Foundation, priority 2008, dated 2012)", "key": {"dap1Δ S. cerevisiae": {"system": "dap1Δ S. cerevisiae", "experiment": "Amphotericin B sensitivity of dap1Δ yeast", "type": "cell-based", "conditions": "37° C; data not shown", "method": "PGRMC1 and its homologues have been implicated to be involved in a number of distinct biological processes. […] Additionally, dap1Δ S. cerevisiae appears to be resistant to the polyene antibiotic amphotericin B at 37° C. (data not shown). Amphotericin B functions in a similar manner as nystatin in binding to and depleting membrane ergosterol thereby killing the cell."}, "His10-PGRMC1": {"target": "T1, His10-PGRMC1 (Homo sapiens, UniProt O00264)", "T1 construct": "a product containing the full length coding region of PGMRC1 flanked by Nde1 and BamHI restriction sites; made in house; host or cells: E. coli BL21 (DE3) / BL21 codon plus (RIPL); purified bacterial membranes", "T1 sequence (O00264 whole entry)": "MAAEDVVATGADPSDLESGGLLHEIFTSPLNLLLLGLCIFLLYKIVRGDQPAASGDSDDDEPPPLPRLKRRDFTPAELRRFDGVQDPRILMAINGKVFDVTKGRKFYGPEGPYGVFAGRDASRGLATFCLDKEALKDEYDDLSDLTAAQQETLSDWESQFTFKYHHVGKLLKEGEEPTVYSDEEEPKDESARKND", "experiment": "Competition of cold competitors with [^3H] progesterone or [^3H] cholesterol for His10-PGRMC1 binding", "conditions": "for effect of cold competitor on binding of [^3H] cholesterol: competitor at ten-fold higher concentration; for effect of cold competitor on specific [^3H] progesterone binding: competitor in ten-fold excess", "method": "The standard 10 μL binding reaction contained 10 μp purified membranes (total protein) and 10 μM [^3H] progesterone or [^3H] cholesterol (3,000-5,000 cpm) in buffer A: 20% ethanol. Stock solutions (100 μM) of [^3H] cholesterol and [^3H] progesterone containing ˜4×10^4 cpm/μL, were prepared in 95% ethanol. Reactions were prepared in clear 2.0 mL microcentrifuge tubes on ice. To start the reaction, the microfuge tube was briefly mixed (vortex) and placed at 37° C. Following a 10 to 30 min incubation, the tubes were centrifuged in a microfuge (˜13,000 rpm) for 2 min. The supernatant was carefully removed and the pellet was washed with an additional 10 μL water. After a second round of centrifugation (2 min; 13,000 rpm), the resulting supernatant was combined with the first and the pellet was resuspended in 20 μL H2O, Scintillation fluid (700 μL Wallac Optiflour) was added to each fraction and the fractions were mixed extensively. The fractions were then counted in a multi-well scintillation counter (Wallac Microbeta Triluxmax, Waltham, Mass.) for 30 seconds each. Binding are reported as μ/moles of ligand bound per mg of membrane protein. His10-PGRMC1 (His10 disclosed as SEQ ID NO: 14)-specific binding is reported as the difference in binding between transformed and untransformed bacteria. Experimental deviations from the standard assay conditions are noted in individual figure legends.\nTo test whether progesterone and cholesterol compete for the same specific binding site, the direct binding of [^3H] progesterone or [^3H] cholesterol to His10-PGRMC1 (His10 disclosed as SEQ ID NO: 14) in the presence of various cold competitors was examined. In these experiments, the standard amount of [^3H] ligand was combined with a cold competitor at either 10 or 100-fold higher concentration and mixed well to ensure homogeneity. These stock ligand solutions were then used in the standard binding assay as described.\nThe ability of other putative ligands reported in the literature to compete with progesterone binding was examined. […] As a control, cold progesterone (P) was used as a competitor and it was observed that excess cold progesterone competes with [^3H] progesterone for His10-PGRMC1 (His10 disclosed as SEQ ID NO: 14) binding. Contrastingly, binding of [^3H] cholesterol to His10-PGRMC1 (His10 disclosed as SEQ ID NO: 14) was unaffected by the presence of progesterone, ergosterol, or heme at ten-fold higher concentrations (FIG. 9, cholesterol). It was not until competitor concentrations were 100-fold higher than ligand that a reduction of cholesterol binding was observed."}}}
{"smiles": "C[C@@H]1[C@H](O)[C@@H](C)/C=C/C=C/C=C/C=C/C=C/C=C/C=C/[C@H](O[C@@H]2O[C@H](C)[C@@H](O)[C@H](N)[C@@H]2O)C[C@@H]2O[C@](O)(C[C@@H](O)C[C@@H](O)[C@H](O)CC[C@@H](O)C[C@@H](O)CC(=O)O[C@H]1C)C[C@H](O)[C@H]2C(=O)O", "note": "[amphotericin B]", "values": [{"measurement": "sensitivity of dap1Δ strain to the antibiotic", "setting": "dap1Δ S. cerevisiae", "result": "resistant"}]}
{"smiles": "CC(C)[C@@H](C)/C=C/[C@@H](C)[C@H]1CC[C@H]2C3=CC=C4C[C@@H](O)CC[C@]4(C)[C@H]3CC[C@]12C", "note": "[ergosterol]", "values": [{"measurement": "effect of cold competitor on binding of [^3H] cholesterol", "setting": "His10-PGRMC1", "result": "unaffected"}, {"measurement": "effect of cold competitor on specific [^3H] progesterone binding", "setting": "His10-PGRMC1", "result": "reduced"}]}
{"smiles": "C=CC1=C(C)c2cc3[n-]c(cc4[n-]c(cc5nc(cc1n2)C(C)=C5C=C)c(C)c4CCC(=O)O)c(CCC(=O)O)c3C.[Fe+2]", "note": "[heme]", "values": [{"measurement": "effect of cold competitor on binding of [^3H] cholesterol", "setting": "His10-PGRMC1", "result": "unaffected"}, {"measurement": "effect of cold competitor on specific [^3H] progesterone binding", "setting": "His10-PGRMC1", "result": "reduced"}]}
